One test relates to PPARg. In words: PPARgamma Transient Cotransfection Assay. It counts as cell-based.
A further test relates to db/db mice. Put plainly: In vivo Evaluation in db/db mice (plasma glucose). To be noted: 5 mg/kg b.i.d. oral gavage, fourteen days. Further details: species or system mouse.
A further test concerns the target T1, hPPARgamma (Homo sapiens, UniProt P37231).
T1 construct: 10x-histidine tag (N); made in house; host or cells: E. coli
T1 sequence (P37231 195-475 isoform P37231-2): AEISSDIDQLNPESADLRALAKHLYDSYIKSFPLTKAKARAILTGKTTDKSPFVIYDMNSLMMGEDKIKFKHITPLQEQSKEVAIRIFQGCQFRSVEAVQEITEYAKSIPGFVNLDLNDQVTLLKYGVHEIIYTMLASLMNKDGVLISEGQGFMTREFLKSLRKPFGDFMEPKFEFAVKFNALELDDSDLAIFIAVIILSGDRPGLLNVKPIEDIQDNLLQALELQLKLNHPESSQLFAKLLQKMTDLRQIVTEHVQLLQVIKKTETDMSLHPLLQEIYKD
Put plainly: hPPARgamma Ligand Binding Assay. To be noted: competition with [3H]-BRL 49,653, room temperature 2 hrs.

The subject of the next test is pre-adipocyte cell lines. To be noted: treatment of pre-adipocyte cell lines; cited from earlier work.
For the next test, the system named is human patients. The following applies: patients with impaired glucose tolerance, NIDDM; cited from earlier work.
[1] abbreviates: read-out: PPARg EC50, CAT reporter.
[2] abbreviates: CAT reporter, read-out: PPARg EC50.

Structures can show the parent of a compound that is named as a salt. Where two headings read alike, the source gives them in different places.

Protocol for db/db mice: In vivo Evaluation: Experiments were performed on db/db mice (n=40-48), approximately 60 day old, divided into either vehicle or treatment groups. From each group 8-12 animals were placed in Nalgene metabolic cages, 2 per cage. The remaining animals are housed in standard rack cages; 3-4 per cage. Test compounds were dissolved in an appropriate vehicle. Animals were administered either the vehicle or the compound (dose=5 mg/kg) delivered at 5 ml/kg, b.i.d., via oral gavage for fourteen days. Daily measurements were made of mice housed in metabolic cages to determine consumption of food and water, urine output and urinary glucose excretion and changes in body weight. Animals housed in rack cages were weighed approximately every four days to monitor changes in body weight. An equal number of animals from each group were sampled on days 0, 4, 7 and 14. Mice were anesthetized with isolflurane, blood samples were obtained by cardiac puncture and analyzed to determine plasma levels of glucose, insulin, total cholesterol, triglycerides and non-esterified free fatty acids (NEFA's).
Protocol for hPPARgamma: 2. hPPARgamma Ligand Binding Assay: The PPAR-gamma ligand binding domain (amino acids 195-475) was expressed with an N-terminal 10×-histidinetag in E. coli cells. The cells were lysed and receptor was purified by means of the epitope tag. The stock solution of protein was diluted to 200 nM in assay buffer (50 mM Tris, 50 mM KCl, pH 8 20 mM CHAPS, 2 mM EDTA 10 mM DTT (Fresh)) just before use.
Test compounds were prepared as 6 mM stock solutions in DMSO. […] The right-most column of wells was used for controls. […] Plates were incubated at room temperature for 2 hrs, and then cooled on ice for 30 minutes. 50 uL samples from each well of a single test plate were simultaneously loaded onto an equilibrated AGTC 96 well gel filtration block (Advanced Genetics Technology Corp.) using a Zymak Rapidplate automated pipettor. The block was placed on top of a clean microtiter plate and centrifuged @1,100×g for 4 min. 200 uL of scintillation fluid was added to each well, the plates were sealed and allowed to equilibrate for at least 4 hours before counting in a Wallac 1250 Microbeta counter.
Ki's were determined from a nonlinear least squares fit of the data to a simple competitive binding model.

In the case of `CN(CCOc1ccc(C[C@H](Nc2ccccc2C(=O)c2ccccc2)C(=O)O)cc1)c1ccccn1` [Example 12, 2(S)-(2-benzoyl-phenylamino)-3-{4-[2-(methyl-pyridin-2-yl-amino)-ethoxy]-phenyl}-propionic acid], in the test on PPARg (setting [1]), the EC50 was 5 nM. Further, in the test on db/db mice, the “% lowering of plasma glucose” value was 58%.

Regarding `CN(CCOc1ccc(CC(Nc2ccccc2C(=O)c2ccccc2)C(=O)O)cc1)c1nc2ccccc2o1` (stereo not drawn) [Example 16, 3-{4-[2-(benzoxazol-2-yl-methyl-amino)-ethoxy]-phenyl}-2-(2-benzoyl-phenylamino)-propionic acid], in the test with PPARg (setting [2]), the EC50 was 1 nM. Also, at hPPARgamma (PPARg Ki), the inhibition constant Ki worked out at 20 nM. In addition, the “% lowering of plasma glucose” value with db/db mice amounted to 63%.

As for `Cc1oc(-c2ccccc2)nc1CCOc1ccc(C[C@H](Nc2ccccc2C(=O)c2ccccc2)C(=O)O)cc1` [Example 29, 2(S)-(2-Benzoyl-phenylamino)-3-{4-[2-(5-methyl-2-phenyl-oxazol-4-yl)ethoxy]-phenyl}-propionic acid], the concentration giving a half-maximal response (EC50) with PPARg (setting [1]) was 0.2 nM. Also, the “% lowering of plasma glucose” value with db/db mice worked out at 70%.

Turning to `Cc1oc(-c2ccccc2)nc1CCOc1ccc(C[C@H](Nc2ccccc2C(=O)NCCN)C(=O)O)cc1` [Example 89, 2-(S)-(1-carboxy-2-{4-{2-(5-methyl-2-phenyl-oxazol-4-yl)-ethoxy]-phenyl}-ethylamino)-benzoic acid 2-aminoethyl amide hydrochloride], in the test on PPARg (setting [2]), the EC50 is 60 nM. The affinity at hPPARgamma (PPARg Ki), expressed as Ki, was 3000 nM.

As to `CN(CCOc1ccc(CC(Nc2ccccc2C(=O)c2cccc(O)c2)C(=O)O)cc1)c1nc2ccccc2o1` (stereo not drawn) [Example 92, 3-{4-[2-(benzoxazol-2-yl-methyl-amino)-ethoxy]-phenyl}-2-[2-(3-hydroxy-benzoyl)-phenylamino]-propionic acid], the EC50 in the test with PPARg (setting [2]) worked out at 400 nM. At hPPARgamma (PPARg Ki), this compound showed an inhibition constant Ki of 20 nM.

Take `CCCNS(=O)(=O)c1ccc(C(=O)c2ccccc2NC(Cc2ccc(OCCc3nc(-c4ccccc4)oc3C)cc2)C(=O)O)cc1` (stereo not drawn) [Example 93, 3-{4-[2-(5-methyl-2-phenyl-oxazol-4-yl)-ethoxy]-phenyl}-2-[2-(4-propylsulfamoyl-benzoyl)-phenylamino]-propionic acid]: in the test with PPARg (setting [2]), the 50% effective concentration (EC50) amounted to 55 nM. For the same compound, affinity at hPPARgamma (PPARg Ki) was put at a Ki of 100 nM.

Take `Cc1oc(-c2ccccc2)nc1CCOc1ccc(CC(Nc2ccccc2C(=O)c2cccc(N)c2)C(=O)O)cc1` (stereo not drawn) [Example 94, 2-[2-(3-amino-benzoyl)-phenylamino]-3-{4-[2-(5-methyl-2-phenyl-oxazol-4-yl)-ethoxy]-phenyl}-propionic acid]: in the test on PPARg (setting [2]), the EC50 was found to be 10 nM. The affinity on hPPARgamma (PPARg Ki) corresponds to a Ki of 40 nM.

Turning to `Cc1oc(-c2ccccc2)nc1CCOc1ccc(CC(Nc2ccccc2C(=O)c2cccc(NS(C)(=O)=O)c2)C(=O)O)cc1` (stereo not drawn) [Example 95, 2-[2-(3-methanesulfonylamino-benzoyl)-phenylamino]-3-{4-[2-(5-methyl-2-phenyl-oxazol-4-yl)-ethoxy]-phenyl}-propionic acid], the EC50 in the test with PPARg (setting [2]) worked out at 700 nM. The affinity at hPPARgamma (PPARg Ki), expressed as Ki, was 380 nM.

Take `COC(=O)Nc1cccc(C(=O)c2ccccc2NC(Cc2ccc(OCCc3nc(-c4ccccc4)oc3C)cc2)C(=O)O)c1` (stereo not drawn) [Example 96, 2-[2-(3-methoxycarbonylamino-benzoyl)-phenylamino]-3-{4-[2-(5-methyl-2-phenyl-oxazol-4-yl)-ethoxy]-phenyl}-propionic acid]: the EC50 in the test on PPARg (setting [2]) amounted to 300 nM. Moreover, affinity at hPPARgamma (PPARg Ki) was put at a Ki of 280 nM.

Consider `Cc1oc(-c2ccccc2)nc1CCOc1ccc(CC(Nc2ccccc2C(=O)c2cccc(O)c2)C(=O)O)cc1` (stereo not drawn) [Example 97, 2-[2-(3-hydroxy-benzoyl)-phenylamino]-3-{4-[2-(5-methyl-2-phenyl-oxazol-4-yl)-ethoxy]-phenyl}-propionic acid], for which the concentration giving a half-maximal response (EC50) in the test with PPARg (setting [2]) was 20 nM. On hPPARgamma (PPARg Ki), this compound displayed a Ki of 5 nM.

With `Cc1oc(-c2ccccc2)nc1CCOc1ccc(CC(Nc2ccccc2C(=O)c2cccc(OCC(N)=O)c2)C(=O)O)cc1` (stereo not drawn) [Example 98, 2-[2-(3-Carbanoylmethoxy-benzoyl)-phenylamino]-3-{4-[2-(5-methyl-2-phenyl-oxazol-4-yl)-ethoxy]-phenyl}-propionic acid], in the test on PPARg (setting [2]), the EC50 is 375 nM. The affinity on hPPARgamma (PPARg Ki) corresponds to a Ki of 10 nM.

As to `COC(=O)c1ccccc1N[C@@H](Cc1ccc(OCCc2ccc(N(C)C)cc2)cc1)C(=O)O` [Example 104, 2(S)-(1-carboxy-2-{4-[2-(4-dimethylamino-phenyl)-ethoxy]-phenyl}-ethylamino)-benzoic acid methyl ester], in the test on PPARg (setting [2]), the concentration for a half-maximal effect (EC50) was 900 nM. At hPPARgamma (PPARg Ki), affinity was put at a Ki of 3000 nM.

As for `COC(=O)c1ccccc1N[C@@H](Cc1ccc(OCCc2nc(N3CCN(C)CC3)sc2C)cc1)C(=O)O` [Example 105], the half-maximal effective concentration (EC50) in the test on PPARg (setting [2]) was 35 nM. Besides, the inhibitory constant (Ki) on hPPARgamma (read-out: PPARg Ki) turned out to be 140 nM.

For `COC(=O)c1ccccc1N[C@@H](Cc1ccc(OCCc2ccc(Cl)cc2)cc1)C(=O)O` [Example 106, 2(S)-(1-carboxy-2-{4-[2-(4-chloro-phenyl)-ethoxy]-phenyl}-ethylamino)-benzoic acid methyl ester], the half-maximal effective concentration (EC50) in the test on PPARg (setting [2]) came out at 300 nM. Also, the Ki on hPPARgamma (PPARg Ki) is 140 nM.

For `COC(=O)c1ccccc1N[C@@H](Cc1ccc(OCCc2ccc(OC(F)(F)F)cc2)cc1)C(=O)O` [Example 107, 2(S)-(1-carboxy-2-{4-[2-(4-trifluoromethoxy-phenyl)-ethoxy]-phenyl}-ethylamino)-benzoic acid methyl ester], in the test with PPARg (setting [2]), the concentration for a half-maximal effect (EC50) was found to be 190 nM. This compound registered a Ki at hPPARgamma (PPARg Ki) of 40 nM.

Turning to `CN(CCOc1ccc(CC(Nc2ccccc2C(=O)c2ccc(-c3ccccc3)cc2)C(=O)O)cc1)c1nc2ccccc2o1` (stereo not drawn) [Example 109, 3-{4-[2-(Benzoxazol-2-yl-methylamino)-ethoxy]-phenyl}-2-(2-(4-biphenylcarbonyl)-phenylamino)-propionic acid], the concentration for a half-maximal effect (EC50) in the test with PPARg (setting [2]) was found to be 200 nM. This compound registered an inhibitory constant (Ki) on hPPARgamma (PPARg Ki) of 700 nM.

Consider `COc1ccc(C(=O)c2ccccc2NC(Cc2ccc(OCCN(C)c3nc4ccccc4o3)cc2)C(=O)O)cc1` (stereo not drawn) [Example 110, 3-{4-[2-(Benzoxazol-2-yl-methylamino)-ethoxy]-phenyl}-2-(2-(4-methoxy-benzoyl)-phenylamino)-propionic acid], for which, in the test with PPARg (setting [2]), the EC50 amounted to 65 nM. Also, the Ki on hPPARgamma (PPARg Ki) is 50 nM.

In the case of `Cc1ccc(C(=O)c2ccccc2NC(Cc2ccc(OCCN(C)c3nc4ccccc4o3)cc2)C(=O)O)cc1` (stereo not drawn) [Example 111, 3-{4-[2-(Benzoxazol-2-yl-methylamino)-ethoxy]-phenyl}-2-(2-(4-methyl-benzoyl)-phenylamino)-propionic acid], the EC50 in the test on PPARg (setting [2]) came to 10 nM. On hPPARgamma (PPARg Ki), the Ki stood at 70 nM.

Take `Cc1ccccc1C(=O)c1ccccc1NC(Cc1ccc(OCCN(C)c2nc3ccccc3o2)cc1)C(=O)O` (stereo not drawn) [Example 112, 3-{4-[2-(Benzoxazol-2-yl-methylamino)-ethoxy]-phenyl}-2-(2-(2-methyl-benzoyl)-phenylamino)-propionic acid]: in the test with PPARg (setting [2]), the EC50 was 10 nM. The Ki at hPPARgamma (PPARg Ki) amounted to 130 nM.

As for `O=C(c1ccccc1)c1ccccc1N[C@@H](Cc1ccc(OCCSc2ccc(Cl)cc2)cc1)C(=O)O` [Example 115, 2-(2-Benzoyl-phenylamino)-3-{4-2[-(4-chloro-phenylsulfanyl)ethoxy]-phenyl}-propionic acid], the EC50 in the test with PPARg (setting [2]) was 165 nM. The same compound registered a Ki on hPPARgamma (PPARg Ki) of 200 nM.

`O=C(c1ccccc1)c1ccccc1NC(Cc1ccc(OCCc2cccnc2)cc1)C(=O)O` (stereo not drawn) [Example 123, 2-(2-Benzoyl-phenylamino)-3-[4-(2-pyridin-3-yl-ethoxy]-phenyl]-propionic acid]: the half-maximal effective concentration (EC50) with PPARg (setting [2]) came out at 620 nM. The affinity at hPPARgamma (PPARg Ki) corresponds to a Ki of 280 nM.

Regarding `CCc1ccc(CCOc2ccc(CC3SC(=O)NC3=O)cc2)nc1` (stereo not drawn) [pioglitazone], the “expression of adipocyte-specific genes aP2 and adipsin and glucose transporter proteins GLUT-1 and GLUT-4” value with pre-adipocyte cell lines is “increased expression of the adipocyte-specific genes aP2 and adipsin as well as the glucose transporter proteins GLUT-1 and GLUT-4”.

On to `Cc1c(C)c2c(c(C)c1O)CCC(C)(COc1ccc(CC3SC(=O)NC3=O)cc1)O2` (stereo not drawn) [troglitazone], for which the “effects in human patients (insulin sensitivity, lipid and insulin levels)” value in the test on human patients is reported as “these same beneficial effects in human patients”.
